Laboratory results taken from the supplement of paper PMC10627819.

Assays:
B. subtilis 168 = assay: Bliss interaction score (quartile over a dose matrix) (fitness difference); higher = more antagonism (negative = synergy)
Outline: (§1)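 Quartiles summarise the Bliss score over technical, biological and donor/recipient replicates, where the score is observed minus expected fitness under a product model. Expected fitness uses single-drug values inferred from combination data. Fitness is OD595 at entry into stationary phase over the plate's robust no-drug mean, capped at 1.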

S. aureus Newman = assay: as above
Outline: as §1

S. aureus DSM 20231 = assay: as above
Outline: as §1

S. pneumoniae D39V [1] = assay: as above
Outline: as §1

S. pneumoniae D39V [2] = assay: fitness (endpoint OD595 vs no drug) (fraction); higher = more growth
Outline: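 Growth medium was TSB, LB Lennox or CY, and plates were kept at 37 °C. Inoculation was at OD595 0.01 in 384-well plates, at 30 µl per well or 55 µl for S. pneumoniae. OD595 was monitored every 30 min for 14 h and background-subtracted using the first reading. Fitness is the optical density on entering stationary phase divided by the robust mean of no-drug controls, with values capped at 1.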
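For Bliss interaction score (quartile over a dose matrix) in this document: first quartile when negative (synergy) and third quartile when positive (antagonism).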

CC(=O)NC[C@H]1CN(c2ccc(N3CCOCC3)c(F)c2)C(=O)O1 [Linezolid] + Clc1ccc(COC(Cn2ccnc2)c2ccc(Cl)cc2Cl)c(Cl)c1 [Miconazole]
Conditions	Bliss interaction score
B. subtilis 168	0.047
S. aureus DSM 20231	-0.0366
S. aureus Newman	-0.0524
S. pneumoniae D39V [1]	0.199

fitness, S. pneumoniae D39V [2]
Conditions	first compound 0.105 µg/mL	first compound 0.2 µg/mL	first compound 0.21 µg/mL	first compound 0.4 µg/mL	first compound 0.42 µg/mL	first compound 0.8 µg/mL
partner 1.073 µg/mL	–	0.924	–	0.751	–	0.431
partner 1.25 µg/mL	0.835	–	0.653	–	0.566	–
partner 2.145 µg/mL	–	0.929	–	0.765	–	0.428
partner 2.5 µg/mL	0.807	–	0.691	–	0.524	–
partner 4.29 µg/mL	–	0.957	–	0.804	–	0.54
partner 5 µg/mL	0.842	–	0.74	–	0.502	–

CO[C@H]1/C=C/O[C@@]2(C)Oc3c(C)c(O)c4c(O)c(c(/C=N/N5CCN(C)CC5)c(O)c4c3C2=O)NC(=O)/C(C)=C\C=C\[C@H](C)[C@H](O)[C@@H](C)[C@@H](O)[C@@H](C)[C@H](OC(C)=O)[C@@H]1C [Rifampicin] + CN(N=O)C(=O)N[C@@H](C=O)[C@@H](O)[C@H](O)[C@H](O)CO [Streptozotocin]
Conditions	Bliss interaction score
B. subtilis 168	-0.0644
S. aureus DSM 20231	0.034
S. aureus Newman	-0.0244
S. pneumoniae D39V [1]	-0.0476

S. pneumoniae D39V [2], first compound 0.025 µg/mL, one replicate
Conditions	fitness
partner 1.2 µg/mL	0.825
partner 2.4 µg/mL	0.838
partner 4.8 µg/mL	0.786

fitness, S. pneumoniae D39V [2]
Conditions	partner 1.2 µg/mL	partner 2.4 µg/mL	partner 4.8 µg/mL
first compound 0.05 µg/mL	0.831	0.879	0.766
first compound 0.2 µg/mL	0.0914	0.108	0

CO[C@H]1/C=C/O[C@@]2(C)Oc3c(C)c(O)c4c(O)c(c(/C=N/N5CCN(C)CC5)c(O)c4c3C2=O)NC(=O)/C(C)=C\C=C\[C@H](C)[C@H](O)[C@@H](C)[C@@H](O)[C@@H](C)[C@H](OC(C)=O)[C@@H]1C [Rifampicin] + CN(C)c1cc(NC(=O)CNC(C)(C)C)c(O)c2c1C[C@H]1C[C@H]3[C@H](N(C)C)C(O)=C(C(N)=O)C(=O)[C@@]3(O)C(O)=C1C2=O [Tigecycline]
Conditions	Bliss interaction score
B. subtilis 168	0.0457
S. aureus DSM 20231	0.026
S. aureus Newman	-0.0189
S. pneumoniae D39V [1]	-0.0785

S. pneumoniae D39V [2], first compound 0.025 µg/mL, one replicate
Conditions	fitness
partner 0.65 µg/mL	0.86
partner 1.3 µg/mL	0.808
partner 2.6 µg/mL	0.839

S. pneumoniae D39V [2], first compound 0.2 µg/mL
Conditions	fitness
partner 0.65 µg/mL	0.197
partner 1.3 µg/mL	0.159
partner 2.6 µg/mL	0.196

CO[C@H]1/C=C/O[C@@]2(C)Oc3c(C)c(O)c4c(O)c(c(/C=N/N5CCN(C)CC5)c(O)c4c3C2=O)NC(=O)/C(C)=C\C=C\[C@H](C)[C@H](O)[C@@H](C)[C@@H](O)[C@@H](C)[C@H](OC(C)=O)[C@@H]1C [Rifampicin] + Cc1cc(NS(=O)(=O)c2ccc(N)cc2)no1 [Sulfamethoxazol]
Conditions	Bliss interaction score
B. subtilis 168	-0.052
S. aureus DSM 20231	-0.0278
S. aureus Newman	-0.0257
S. pneumoniae D39V [1]	0.0639

S. pneumoniae D39V [2], first compound 0.025 µg/mL, one replicate
Conditions	fitness
partner 1 µg/mL	0.837
partner 2 µg/mL	0.831
partner 4 µg/mL	0.828

fitness, S. pneumoniae D39V [2]
Conditions	partner 1 µg/mL	partner 2 µg/mL	partner 4 µg/mL
first compound 0.05 µg/mL	0.933	0.93	0.853
first compound 0.2 µg/mL	0.0772	0.0834	0.104

CO[C@H]1/C=C/O[C@@]2(C)Oc3c(C)c(O)c4c(O)c(c(/C=N/N5CCN(C)CC5)c(O)c4c3C2=O)NC(=O)/C(C)=C\C=C\[C@H](C)[C@H](O)[C@@H](C)[C@@H](O)[C@@H](C)[C@H](OC(C)=O)[C@@H]1C [Rifampicin] + CN[C@@H]1[C@H](O)[C@H](NC)[C@H]2O[C@@]3(O)C(=O)C[C@@H](C)O[C@H]3O[C@@H]2[C@H]1O [Spectinomycin]
Conditions	Bliss interaction score
B. subtilis 168	-0.0584
S. aureus DSM 20231	-0.0309
S. aureus Newman	0.0508
S. pneumoniae D39V [1]	-0.153

fitness, S. pneumoniae D39V [2], one replicate
Conditions	partner 4 µg/mL	partner 8 µg/mL	partner 16 µg/mL
first compound 0.025 µg/mL	0.848	0.716	0.282
first compound 0.2 µg/mL	–	–	0

fitness, S. pneumoniae D39V [2]
Conditions	first compound 0.05 µg/mL	first compound 0.1 µg/mL	first compound 0.2 µg/mL
partner 4 µg/mL	0.497	0.297	0.0634
partner 8 µg/mL	–	0.202	0.069
partner 16 µg/mL	0.23	0.204	–
